Test results taken from patent publication US8962574B2 (Boehringer Ingelheim International GmbH, priority 2008, dated 2015).

Tests used:
[1] = test system: patients with atrial fibrillation
Protocol: PETRO-Ex began while the PETRO study was ongoing and investigators were initially kept blinded to patient treatment group until PETRO was completed. Unblinding investigators to patient treatment was possible thereafter.
Data were summarized descriptively; no hypothesis was to be tested. Events were analyzed on the basis of the treatment at onset. Incidences were reported as number of patients with events as well as normalized to 100 patient-years on the respective treatment.
Written, informed consent was obtained from all patients.
Patients who completed PETRO on 50 mg b.i.d. were switched to 150 mg q.d. upon entry in the PETRO-Ex study (N=93 patients). […] Patients who were down titrated to 50 mg q.d. based on a glomerular filtration rate ≦50 mL/min during PETRO were excluded from the long-term trial; patients down-titrated in other dose levels remained on the q.d. treatment at that dose.
The total exposure reflects both trials, PETRO and PETRO-Ex, together.

[2] = test system: patients with chronic atrial fibrillation; experiment: PETRO phase 2 12-week dose finding study; type: in vivo, human; conditions: 12 weeks
From the text: Primary endpoints were bleeding events and changes in D-dimer. […] Minor bleeding was dose related.

[3] = test system: patients with atrial fibrillation at risk of stroke; experiment: RELY Clinical Trial, dabigatran 110 mg or 150 mg twice daily versus warfarin; type: in vivo
From the text: The primary study outcome was stroke or systemic embolism. The primary safety outcome was major hemorrhage. Secondary outcomes were stroke, systemic embolism and death. […] All other bleeding was considered minor.
All analyses were based on intention-to-treat.

[4] = test system: activated partial thromboplastin time (aPTT), ecarin clotting time, and thrombin clotting time; experiment: Coagulation tests
[5] = of the 16 on treatment cases with AST or ALT >3×ULN

[H]/N=C(/N)c1ccc(NCc2nc3cc(C(=O)N(CCC(=O)O)c4ccccn4)ccc3n2C)cc1 [dabigatran]
Fatal bleeding events, rate ([1]; all doses): 0.5 % per year
LFT abnormality resolved after stopping, number of cases [1, 5]: 5
LFT abnormality resolved with continuation, number of cases [1, 5]: 10
Cases with an explanatory clinical diagnosis, number ([1]; of the 18 cases with AST or ALT >3×ULN): 9
Change in D-dimer levels [2]: comparable to warfarin
Rate of hemorrhagic stroke ([3]; 110 mg b.i.d.): 0.12 % per year
Rate of net benefit-risk outcome (major vascular events, major bleeding and death) ([3]; 110 mg b.i.d.): 7.37 % per year
Stroke, systemic embolism, pulmonary embolism, myocardial infarction death or major bleed (net benefit), Rate ([3]; 110 mg b.i.d.): 7.37 /100 Person Years
First Hospitalization, RR ([3]; 110 mg vs. Warfarin): 0.92
Non-disabling Stroke Modified Rankin 0-2, RR ([3]; 110 mg vs. Warfarin): 0.87
Stroke or systemic embolism, RR ([3]; 110 mg vs. Warfarin): 0.91
Stroke, Hemorrhagic, RR ([3]; 110 mg vs. Warfarin): 0.31
Stroke, RR ([3]; 110 mg vs. Warfarin): 0.92
Stroke, systemic embolism, pulmonary embolism, myocardial infarction death or major bleed (net benefit), RR ([3]; 110 mg vs. Warfarin): 0.92
Rate of hemorrhagic stroke ([3]; 150 mg b.i.d.): 0.10 % per year
Rate of net benefit-risk outcome (major vascular events, major bleeding and death) ([3]; 150 mg b.i.d.): 7.22 % per year
Stroke, systemic embolism, pulmonary embolism, myocardial infarction death or major bleed (net benefit), Rate ([3]; 150 mg b.i.d.): 7.22 /100 Person Years
Stroke, Ischemic or Unspecified, RR ([3]; 150 mg vs. 110 mg): 0.68
Stroke, RR ([3]; 150 mg vs. 110 mg): 0.70
Stroke, systemic embolism, pulmonary embolism, myocardial infarction death or major bleed (net benefit), RR ([3]; 150 mg vs. 110 mg): 0.98
First Hospitalization, RR ([3]; 150 mg vs. Warfarin): 0.97
Non-disabling Stroke Modified Rankin 0-2, RR ([3]; 150 mg vs. Warfarin): 0.62
Stroke or systemic embolism, RR ([3]; 150 mg vs. Warfarin): 0.66
Stroke, Hemorrhagic, RR ([3]; 150 mg vs. Warfarin): 0.26
Stroke, Ischemic or Unspecified, RR ([3]; 150 mg vs. Warfarin): 0.76
Stroke, RR ([3]; 150 mg vs. Warfarin): 0.64
Stroke, systemic embolism, pulmonary embolism, myocardial infarction death or major bleed (net benefit), RR ([3]; 150 mg vs. Warfarin): 0.90
Prolongation of aPTT, ecarin clotting time, and thrombin clotting time [4]: dose dependent prolongation
